# Source: PubChem BioAssay (NCI)
#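 1) Cells in 96-well plates. 2) Compound, 48 h, 5 concentrations. 3) Linear interpolation between surrounding doses. 4) Unreached endpoint = highest concentration. Abbreviation: GI50, concentration required for 50% inhibition of growth. TGI is the concentration that stops growth completely.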
# Legend:
# Experiment in all cases: inhibition of tumour cell growth, NCI panel, 48 h
# 786-0 renal = system: 786-0 renal
# A498 renal = system: A498 renal
# A549 NSCLC = system: A549 NSCLC
# ACHN renal = system: ACHN renal
# BT-549 breast = system: BT-549 breast
# CAKI-1 renal = system: CAKI-1 renal
# CCRF-CEM leukemia = system: CCRF-CEM leukemia
# COLO 205 colon = system: COLO 205 colon
# DU-145 prostate = system: DU-145 prostate
# EKVX NSCLC = system: EKVX NSCLC
# HCC-2998 colon = system: HCC-2998 colon
# HCT-15 colon = system: HCT-15 colon
# HL-60(TB) leukemia = system: HL-60(TB) leukemia
# HOP-62 NSCLC = system: HOP-62 NSCLC
# HOP-92 NSCLC = system: HOP-92 NSCLC
# HS 578T breast = system: HS 578T breast
# HT29 colon = system: HT29 colon
# IGROV1 ovarian = system: IGROV1 ovarian
# K-562 leukemia = system: K-562 leukemia
# KM12 colon = system: KM12 colon
# M14 melanoma = system: M14 melanoma
# MALME-3M melanoma = system: MALME-3M melanoma
# MCF7 breast = system: MCF7 breast
# MDA-MB-231 breast = system: MDA-MB-231 breast
# MDA-MB-435 = system: MDA-MB-435
# MOLT-4 leukemia = system: MOLT-4 leukemia
# NCI-H226 lung = system: NCI-H226 lung
# NCI-H23 lung = system: NCI-H23 lung
# NCI-H460 lung = system: NCI-H460 lung
# NCI-H522 lung = system: NCI-H522 lung
# NCI/ADR-RES ovarian = system: NCI/ADR-RES ovarian
# OVCAR-4 ovarian = system: OVCAR-4 ovarian
# OVCAR-5 ovarian = system: OVCAR-5 ovarian
# OVCAR-8 ovarian = system: OVCAR-8 ovarian
# PC-3 prostate = system: PC-3 prostate
# RPMI-8226 leukemia = system: RPMI-8226 leukemia
# RXF 393 renal = system: RXF 393 renal
# SF-268 CNS = system: SF-268 CNS
# SF-295 CNS = system: SF-295 CNS
# SF-539 CNS = system: SF-539 CNS
# SK-MEL-2 melanoma = system: SK-MEL-2 melanoma
# SK-MEL-28 melanoma = system: SK-MEL-28 melanoma
# SK-MEL-5 melanoma = system: SK-MEL-5 melanoma
# SK-OV-3 ovarian = system: SK-OV-3 ovarian
# SN12C renal = system: SN12C renal
# SNB-19 CNS = system: SNB-19 CNS
# SNB-75 CNS = system: SNB-75 CNS
# SW-620 colon = system: SW-620 colon
# T-47D breast = system: T-47D breast
# TK-10 renal = system: TK-10 renal
# UACC-257 melanoma = system: UACC-257 melanoma
# UACC-62 melanoma = system: UACC-62 melanoma
# UO-31 renal = system: UO-31 renal
compound,measurement,setting,value
NCCN1CCN(c2nc(-c3ccccc3)nc3nc(-c4ccccc4)oc23)CC1,GI50,786-0 renal,1.77 µM
same,TGI,786-0 renal,3.64 µM
same,GI50,A498 renal,1.69 µM
same,TGI,A498 renal,3.31 µM
same,GI50,A549 NSCLC,1.85 µM
same,TGI,A549 NSCLC,3.91 µM
same,GI50,ACHN renal,1.81 µM
same,TGI,ACHN renal,3.29 µM
same,GI50,BT-549 breast,1.68 µM
same,TGI,BT-549 breast,3.31 µM
same,GI50,CAKI-1 renal,1.64 µM
same,TGI,CAKI-1 renal,3.17 µM
same,GI50,CCRF-CEM leukemia,0.919 µM
same,TGI,CCRF-CEM leukemia,3.29 µM
same,GI50,COLO 205 colon,1.93 µM
same,TGI,COLO 205 colon,3.92 µM
same,GI50,DU-145 prostate,1.92 µM
same,TGI,DU-145 prostate,3.45 µM
same,GI50,EKVX NSCLC,1.67 µM
same,TGI,EKVX NSCLC,3.36 µM
same,GI50,HCC-2998 colon,1.63 µM
same,TGI,HCC-2998 colon,3.06 µM
same,GI50,HCT-15 colon,1.49 µM
same,TGI,HCT-15 colon,2.97 µM
same,GI50,HL-60(TB) leukemia,1.86 µM
same,TGI,HL-60(TB) leukemia,4.48 µM
same,GI50,HOP-62 NSCLC,2.03 µM
same,TGI,HOP-62 NSCLC,4.55 µM
same,GI50,HOP-92 NSCLC,1.35 µM
same,TGI,HOP-92 NSCLC,2.87 µM
same,GI50,HS 578T breast,2.22 µM
same,TGI,HS 578T breast,5.06 µM
same,GI50,HT29 colon,1.97 µM
same,TGI,HT29 colon,4 µM
same,GI50,IGROV1 ovarian,1.8 µM
same,TGI,IGROV1 ovarian,3.49 µM
same,GI50,K-562 leukemia,0.287 µM
same,TGI,K-562 leukemia,1.01 µM
same,GI50,KM12 colon,1.86 µM
same,TGI,KM12 colon,3.47 µM
same,GI50,M14 melanoma,2.04 µM
same,TGI,M14 melanoma,3.72 µM
same,GI50,MALME-3M melanoma,1.75 µM
same,TGI,MALME-3M melanoma,3.39 µM
same,GI50,MCF7 breast,1.31 µM
same,TGI,MCF7 breast,2.86 µM
same,GI50,MDA-MB-231 breast,1.83 µM
same,TGI,MDA-MB-231 breast,3.56 µM
same,GI50,MDA-MB-435,1.82 µM
same,TGI,MDA-MB-435,3.32 µM
same,GI50,MOLT-4 leukemia,2.08 µM
same,TGI,MOLT-4 leukemia,4.62 µM
same,GI50,NCI-H226 lung,1.97 µM
same,TGI,NCI-H226 lung,4.13 µM
same,GI50,NCI-H23 lung,1.69 µM
same,TGI,NCI-H23 lung,3.21 µM
same,GI50,NCI-H460 lung,1.94 µM
same,TGI,NCI-H460 lung,3.69 µM
same,GI50,NCI-H522 lung,2.16 µM
same,TGI,NCI-H522 lung,5.05 µM
same,GI50,NCI/ADR-RES ovarian,1.9 µM
same,TGI,NCI/ADR-RES ovarian,3.97 µM
same,GI50,OVCAR-4 ovarian,2.15 µM
same,TGI,OVCAR-4 ovarian,4.42 µM
same,GI50,OVCAR-5 ovarian,1.77 µM
same,TGI,OVCAR-5 ovarian,3.26 µM
same,GI50,OVCAR-8 ovarian,1.98 µM
same,TGI,OVCAR-8 ovarian,4.46 µM
same,GI50,PC-3 prostate,1.59 µM
same,TGI,PC-3 prostate,3.06 µM
same,GI50,RPMI-8226 leukemia,1.88 µM
same,TGI,RPMI-8226 leukemia,4.62 µM
same,GI50,RXF 393 renal,1.63 µM
same,TGI,RXF 393 renal,3.41 µM
same,GI50,SF-268 CNS,1.85 µM
same,TGI,SF-268 CNS,3.96 µM
same,GI50,SF-295 CNS,1.89 µM
same,TGI,SF-295 CNS,3.6 µM
same,GI50,SF-539 CNS,1.79 µM
same,TGI,SF-539 CNS,3.25 µM
same,GI50,SK-MEL-2 melanoma,22.3 µM
same,TGI,SK-MEL-2 melanoma,47.7 µM
same,GI50,SK-MEL-28 melanoma,1.79 µM
same,TGI,SK-MEL-28 melanoma,3.35 µM
same,GI50,SK-MEL-5 melanoma,1.74 µM
same,TGI,SK-MEL-5 melanoma,3.18 µM
same,GI50,SK-OV-3 ovarian,1.91 µM
same,TGI,SK-OV-3 ovarian,3.69 µM
same,GI50,SN12C renal,1.8 µM
same,TGI,SN12C renal,3.5 µM
same,GI50,SNB-19 CNS,1.82 µM
same,TGI,SNB-19 CNS,3.46 µM
same,GI50,SNB-75 CNS,1.3 µM
same,TGI,SNB-75 CNS,2.6 µM
same,GI50,SW-620 colon,1.71 µM
same,TGI,SW-620 colon,3.3 µM
same,GI50,T-47D breast,2.05 µM
same,TGI,T-47D breast,4.66 µM
same,GI50,TK-10 renal,1.65 µM
same,TGI,TK-10 renal,3.39 µM
same,GI50,UACC-257 melanoma,3.34 µM
same,TGI,UACC-257 melanoma,13.4 µM
same,GI50,UACC-62 melanoma,1.85 µM
same,TGI,UACC-62 melanoma,3.47 µM
same,GI50,UO-31 renal,1.46 µM
same,TGI,UO-31 renal,3.01 µM
